Source: the supplement of paper PMC11061612

What was measured:
Assay in all cases: combination Emax (second highest fraction inhibited in the dose matrix, 72 h); higher = more inhibition; extreme values may be limits of the assay
[1] = test system: OAW-28 (Ovarian Carcinoma)
In short: (§1)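 Cell lines grown in DMEM/F12 or RPMI with 10% FBS were plated in 1536-well plates and held 24 hours at 37°C, 5% CO2 before 72 hours of exposure to two-drug dose matrices, with DMSO typically at 0.2%. CellTiter-Glo 2.0 luminescence gave viability, which was converted to inhibition. Vehicle wells were set to 0 and blank wells to 1. Combination Emax is the second-highest inhibition in the matrix, and Bliss excess is the observed combination effect minus the expected EA + EB − EA·EB, where EA and EB are the single-agent effects.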

[2] = test system: NCI-H2373 (Mesothelioma)
In short: as §1

[3] = test system: SNU-C2B (Colorectal Carcinoma)
In short: as §1

[4] = test system: IST-MEL1 (Melanoma)
In short: as §1

[5] = test system: BHT-101 (Thyroid Gland Carcinoma)
In short: as §1

[6] = test system: MM1S (Plasma Cell Myeloma)
In short: as §1

[7] = test system: LS-1034 (Colorectal Carcinoma)
In short: as §1

[8] = test system: WM35 (Melanoma)
In short: as §1

[9] = test system: T47D (Breast Carcinoma)
In short: as §1

[10] = test system: DBTRG-05MG (Glioblastoma)
In short: as §1

[11] = test system: NCI-H1341 (Small Cell Lung Carcinoma)
In short: as §1

[12] = test system: NCI-H596 (Other Solid Carcinomas)
In short: as §1

[13] = test system: OVCAR-3 (Ovarian Carcinoma)
In short: as §1

[14] = test system: NMC-G1 (Low Grade Glioma)
In short: as §1

[15] = test system: UACC-257 (Melanoma)
In short: as §1

[16] = test system: KP-4 (Pancreatic Carcinoma)
In short: as §1

[17] = test system: C-33-A (Cervical Carcinoma)
In short: as §1

[18] = test system: SCC-4 (Oral Cavity Carcinoma)
In short: as §1

[19] = test system: COR-L88 (Small Cell Lung Carcinoma)
In short: as §1

[20] = test system: SKG-IIIa (Cervical Carcinoma)
In short: as §1

CC1(C)CCC(CN2CCN(c3ccc(C(=O)NS(=O)(=O)c4ccc(NCC5CCOCC5)c([N+](=O)[O-])c4)c(Oc4cnc5[nH]ccc5c4)c3)CC2)=C(c2ccc(Cl)cc2)C1 [Venetoclax] + COc1cc(Nc2ncc3c(n2)-c2ccc(Cl)cc2C(c2c(F)cccc2OC)=NC3)ccc1C(=O)O [Alisertib] (first compound max 1 µM, 7x7, partner max 10 µM)
combination Emax [1]: 0.476
combination Emax [2]: 0.253
combination Emax [3]: 0.291
combination Emax [4]: 0.574
combination Emax [5]: 0.672
combination Emax [6]: 0.423
combination Emax [7]: 0.227
combination Emax [8]: 0.152
combination Emax [9]: 0.326
combination Emax [10]: 0.279
combination Emax [11]: 0.968
combination Emax [12]: 0.381
combination Emax [13]: 0.394
combination Emax [14]: 0.244
combination Emax [15]: 0.191
combination Emax [16]: 0.44
combination Emax [17]: 0.446
combination Emax [18]: 0.571
combination Emax [19]: 0.727
combination Emax [20]: 0.286

CN(CCO)CC[C@H](CSc1ccccc1)Nc1ccc(S(=O)(=O)NC(=O)c2ccc(N3CCC([C@@H](O)c4ccccc4-c4ccc(Cl)cc4)CC3)cc2)cc1S(=O)(=O)C(F)(F)F [AZD4320] + Cn1cnc2c(F)c(Nc3ccc(Br)cc3Cl)c(C(=O)NOCCO)cc21 [Selumetinib] (first compound max 1 µM, 7x7, partner max 3 µM)
combination Emax [1]: 0.984
combination Emax [2]: 0.406
combination Emax [3]: 0.422
combination Emax [4]: 0.35
combination Emax [5]: 0.852
combination Emax [6]: 0.983
combination Emax [7]: 0.594
combination Emax [8]: 0.926
combination Emax [9]: 0.314
combination Emax [10]: 0.702
combination Emax [11]: 0.99
combination Emax [12]: 0.343
combination Emax [13]: 0.563
combination Emax [14]: 0.55
combination Emax [15]: 0.838
combination Emax [16]: 0.254
combination Emax [17]: 0.531
combination Emax [18]: 0.775
combination Emax [19]: 0.959
combination Emax [20]: 0.431

CCN(CCO)CCCOc1ccc2c(Nc3cc(CC(=O)Nc4cccc(F)c4)[nH]n3)ncnc2c1 [AZD2811] + C=CCn1c(=O)c2cnc(Nc3ccc(N4CCN(C)CC4)cc3)nc2n1-c1cccc(C(C)(C)O)n1 [AZD1775] (first compound max 1 µM, partner max 1 µM)
combination Emax [1]: 0.213
combination Emax [2]: 0.408
combination Emax [3]: 0.554
combination Emax [4]: 0.504
combination Emax [5]: 0.318
combination Emax [6]: 0.776
combination Emax [7]: 0.257
combination Emax [8]: 0.197
combination Emax [9]: 0.314
combination Emax [10]: 0.195
combination Emax [11]: 0.632
combination Emax [12]: 0.346
combination Emax [13]: 0.262
combination Emax [14]: 0.254
combination Emax [15]: 0.154
combination Emax [16]: 0.651
combination Emax [17]: 0.882
combination Emax [18]: 0.454
combination Emax [19]: 0.64
combination Emax [20]: 0.261

COc1cccc(OCCCN)c1-c1cc(Nc2cnc(C#N)cn2)n[nH]1 [Prexasertib] + C[C@@H]1COCCN1C2=NC(=NC(=C2)C3(CC3)[S@](=N)(=O)C)C4=C5C=CNC5=NC=C4 [AZD6738] (first compound max 1 µM, 7x7, partner max 10 µM)
combination Emax [1]: 0.546
combination Emax [2]: 0.644
combination Emax [3]: 0.649
combination Emax [4]: 0.817
combination Emax [5]: 0.78
combination Emax [6]: 0.877
combination Emax [7]: 0.71
combination Emax [8]: 0.833
combination Emax [9]: 0.374
combination Emax [10]: 0.281
combination Emax [11]: 0.912
combination Emax [12]: 0.487
combination Emax [13]: 0.773
combination Emax [14]: 0.314
combination Emax [15]: 0.33
combination Emax [16]: 0.536
combination Emax [17]: 0.913
combination Emax [18]: 0.676
combination Emax [19]: 0.833
combination Emax [20]: 0.453

CN(CCO)CC[C@H](CSc1ccccc1)Nc1ccc(S(=O)(=O)NC(=O)c2ccc(N3CCC([C@@H](O)c4ccccc4-c4ccc(Cl)cc4)CC3)cc2)cc1S(=O)(=O)C(F)(F)F [AZD4320] + C1CN(CCC1(C(=O)N[C@@H](CCO)C2=CC=C(C=C2)Cl)N)C3=NC=NC4=C3C=CN4 [Capivasertib] (first compound max 1 µM, 7x7, partner max 3 µM)
combination Emax [1]: 0.899
combination Emax [2]: 0.409
combination Emax [3]: 0.201
combination Emax [4]: 0.26
combination Emax [5]: 0.351
combination Emax [6]: 1
combination Emax [7]: 0.275
combination Emax [8]: 0.215
combination Emax [9]: 0.364
combination Emax [10]: 0.619
combination Emax [11]: 0.974
combination Emax [12]: 0.42
combination Emax [13]: 0.147
combination Emax [14]: 0.507
combination Emax [15]: 0.1
combination Emax [16]: 0.101
combination Emax [17]: 0.518
combination Emax [18]: 0.598
combination Emax [19]: 0.971
combination Emax [20]: 0.131

COc1cccc(OCCCN)c1-c1cc(Nc2cnc(C#N)cn2)n[nH]1 [Prexasertib] + O=C(c1cc(Cc2n[nH]c(=O)c3ccccc23)ccc1F)N1CCN(C(=O)C2CC2)CC1 [Olaparib] (first compound max 1 µM, 7x7, partner max 10 µM)
combination Emax [1]: 0.48
combination Emax [2]: 0.378
combination Emax [3]: 0.66
combination Emax [4]: 0.706
combination Emax [5]: 0.774
combination Emax [6]: 0.931
combination Emax [7]: 0.685
combination Emax [8]: 0.79
combination Emax [9]: 0.479
combination Emax [10]: 0.326
combination Emax [11]: 0.884
combination Emax [12]: 0.642
combination Emax [13]: 0.821
combination Emax [14]: 0.371
combination Emax [15]: 0.312
combination Emax [16]: 0.641
combination Emax [17]: 0.819
combination Emax [18]: 0.588
combination Emax [19]: 0.609
combination Emax [20]: 0.373

Cc1c2c(nn1C)CSCc1cc(n(C)n1)CSc1cc(c3ccccc3c1)OCCCc1c(C(=O)O)n(C)c3c-2c(Cl)ccc13 [AZD5991] + C[C@@H]1COCCN1C2=NC(=NC(=C2)C3(CC3)[S@](=N)(=O)C)C4=C5C=CNC5=NC=C4 [AZD6738] (first compound max 1 µM, 7x7, partner max 10 µM)
combination Emax [1]: 0.52
combination Emax [2]: 0.551
combination Emax [3]: 0.49
combination Emax [4]: 0.788
combination Emax [5]: 0.859
combination Emax [6]: 1
combination Emax [7]: 0.673
combination Emax [8]: 0.343
combination Emax [9]: 0.44
combination Emax [10]: 0.232
combination Emax [11]: 0.71
combination Emax [12]: 0.318
combination Emax [13]: 0.567
combination Emax [14]: 0.377
combination Emax [15]: 0.252
combination Emax [16]: 0.501
combination Emax [17]: 0.923
combination Emax [18]: 0.755
combination Emax [19]: 0.671
combination Emax [20]: 0.333

CCc1c2c(nc3ccc(O)cc13)-c1cc3c(c(=O)n1C2)COC(=O)[C@]3(O)CC [SN-38] + CN(C)CCCOc1ccc(-c2ccc3ncc4c(c3c2)n(C2CCOCC2)c(=O)n4C)cn1 [AZD0156] (first compound max 0.3 µM, 7x7, partner max 1 µM)
combination Emax [1]: 0.791
combination Emax [2]: 0.726
combination Emax [3]: 0.397
combination Emax [4]: 0.864
combination Emax [5]: 0.774
combination Emax [6]: 0.966
combination Emax [7]: 0.814
combination Emax [8]: 0.509
combination Emax [9]: 0.643
combination Emax [10]: 0.412
combination Emax [11]: 0.955
combination Emax [12]: 0.348
combination Emax [13]: 0.449
combination Emax [14]: 0.24
combination Emax [15]: 0.281
combination Emax [16]: 0.817
combination Emax [17]: 0.802
combination Emax [18]: 0.839
combination Emax [19]: 0.472
combination Emax [20]: 0.42

CN(CCO)CC[C@H](CSc1ccccc1)Nc1ccc(S(=O)(=O)NC(=O)c2ccc(N3CCC([C@@H](O)c4ccccc4-c4ccc(Cl)cc4)CC3)cc2)cc1S(=O)(=O)C(F)(F)F [AZD4320] + Cc1cc2ncnn2cc1Nc1ncc2c(n1)n(C1CCOCC1)c(=O)n2C [AZD7648] (first compound max 1 µM, 7x7, partner max 10 µM)
combination Emax [1]: 0.899
combination Emax [2]: 0.374
combination Emax [3]: 0.191
combination Emax [4]: 0.415
combination Emax [5]: 0.363
combination Emax [6]: 1
combination Emax [7]: 0.159
combination Emax [8]: 0.16
combination Emax [9]: 0.312
combination Emax [10]: 0.827
combination Emax [11]: 0.999
combination Emax [12]: 0.338
combination Emax [13]: 0.156
combination Emax [14]: 0.759
combination Emax [15]: 0.122
combination Emax [16]: 0.136
combination Emax [17]: 0.22
combination Emax [18]: 0.737
combination Emax [19]: 0.964
combination Emax [20]: 0.12

COc1cccc(OCCCN)c1-c1cc(Nc2cnc(C#N)cn2)n[nH]1 [Prexasertib] + CCc1c2c(nc3ccc(O)cc13)-c1cc3c(c(=O)n1C2)COC(=O)[C@]3(O)CC [SN-38] (first compound max 1 µM, 7x7, partner max 0.3 µM)
combination Emax [1]: 1
combination Emax [2]: 0.642
combination Emax [3]: 0.658
combination Emax [4]: 0.889
combination Emax [5]: 0.91
combination Emax [6]: 1
combination Emax [7]: 0.897
combination Emax [8]: 0.726
combination Emax [9]: 0.784
combination Emax [10]: 0.624
combination Emax [11]: 0.987
combination Emax [12]: 0.735
combination Emax [13]: 0.963
combination Emax [14]: 0.315
combination Emax [15]: 0.295
combination Emax [16]: 0.9
combination Emax [17]: 0.992
combination Emax [18]: 0.917
combination Emax [19]: 0.866
combination Emax [20]: 0.595

Cc1c2c(nn1C)CSCc1cc(n(C)n1)CSc1cc(c3ccccc3c1)OCCCc1c(C(=O)O)n(C)c3c-2c(Cl)ccc13 [AZD5991] + C1CN(CCC1(C(=O)N[C@@H](CCO)C2=CC=C(C=C2)Cl)N)C3=NC=NC4=C3C=CN4 [Capivasertib] (first compound max 1 µM, 7x7, partner max 3 µM)
combination Emax [1]: 0.224
combination Emax [2]: 0.42
combination Emax [3]: 0.135
combination Emax [4]: 0.212
combination Emax [5]: 0.418
combination Emax [6]: 1
combination Emax [7]: 0.22
combination Emax [8]: 0.207
combination Emax [9]: 0.579
combination Emax [10]: 0.199
combination Emax [11]: 0.647
combination Emax [12]: 0.318
combination Emax [13]: 0.185
combination Emax [14]: 0.214
combination Emax [15]: 0.252
combination Emax [16]: 0.143
combination Emax [17]: 0.689
combination Emax [18]: 0.334
combination Emax [19]: 0.259
combination Emax [20]: 0.18
